From US12226424B2, “Target protein degradation compounds, their anti-tumor use, their intermediates and use of intermediates” (ShanghaiTech University, priority 2018, dated 2025)
Like-named read-outs stand apart in the source and are kept apart here. Values belong to the molecule of their own block, whether it stands above or below them.

Tests used:
[1] = test system: MDA-MB-231 cells; experiment: Half inhibitory concentration (IC50) on BET-expressing tumor cells, CCK-8, MDA-MB-231; assay type: cell-based; settings: Homo sapiens, 48/72 h, read-out: IC50 (nM)/MDA-MB-231 cell line
In short: (§1)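 Cells treated for 48/72 h with ten 5-fold dilutions from 10 μM top, DMSO as negative control. Viability read by CCK-8 (2 h, OD450) and IC50 derived from the concentration series; suspension lines seeded at 15000/10000 cells/well, MDA-MB lines at 3000/5000 cells/well.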

[2] = test system: MV-4-11 cells; experiment: Half inhibitory concentration (IC50) on BET-expressing tumor cells, CCK-8, MV-4-11; settings: Homo sapiens, MV4-11, read-out: IC50 (nM)/MV-4-11 cell line, MV-4-11 cells, 48/72 h, CCK-8
[3] = test system: MDA-MB-468 cells; experiment: Half inhibitory concentration (IC50) on BET-expressing tumor cells, CCK-8, MDA-MB-468; assay type: cell-based; settings: Homo sapiens, 48/72 h, read-out: IC50 (nM)/MDA-MB-468 cell line
In short: as §1

[4] = test system: SR cells; experiment: Half inhibitory concentration (IC50) on BET-expressing tumor cells, CCK-8, SR; assay type: cell-based; settings: Homo sapiens, 48/72 h, read-out: IC50 (nM)/SR cell line
Description: BET-expressing cells MV-4-11 cells (human B granulocytic leukemia cells), MDA-MB-231 cells (human breast cancer cells), MDA-MB-468 cells (human breast cancer cells), MDA-MB-453 Cells (human breast cancer cells), MM1S cells (myeloma (immunoglobulin A lambda), B lymphoblasts) and SR cells (human large cell immunoblast lymphoma) were purchased from the American Type Culture Collection (ATCC).
(§2) The cells used in this present disclosure were cultured in a 37° C. incubator containing 5% CO2. The complete cell culture medium was RPMI 1640/IMDM/DMEM medium with 10% fetal bovine serum, and the final concentrations of penicillin and streptomycin were 100 U/mL, respectively. All cells were tested negative for mycoplasma with mycoplasma detection kit before the experiment.
Determination of the Half Inhibitory Concentration (IC50) of PROTAD Compounds on Tumor Cells
MV-411 cells, MM1S cells and SR cells were seeded in 100 μL IMDM/RPMI1640/DMEM complete medium at a density of 15000/10000 cells/well; MDA-MB-231 cells, MDA-MB-468 cells, and MDA-MB453 cells were seeded in 100 μL IMDM/RPMI1640/DMEM complete medium at a density of 3000/5000 cells/well, respectively. 100 μL of the inoculated cells were treated with 0.5 μL diluted PROTAD compounds of the present disclosure to be tested at 10 successively decreasing concentrations (starting at the highest concentration of 10 μM; 5-fold serial dilutions). After the cells were treated with the tested drugs 48/72 h, the cell viability was determined according to the CCK-8 reagent manual. The negative control was DMSO, and the positive control was a commercial inhibitor. After CCK-8 treatment for 2 h, the value of O.D.450 was measured using a microplate reader.

[5] = test system: MM1S cells; experiment: Half inhibitory concentration (IC50) on BET-expressing tumor cells, CCK-8, MM1S; assay type: cell-based; settings: Homo sapiens, MM1.S, 48/72 h, read-out: IC50 (nM)/MM1S cell line
In short: as §1

[6] = test system: MDA-MB-453 cells; experiment: Half inhibitory concentration (IC50) on BET-expressing tumor cells, CCK-8, MDA-MB-453; assay type: cell-based, human; settings: 48/72 h, read-out: IC50 (nM)/MDA-MB-453 cell line
In short: as §1

[7] = biological target: T1, BCR-ABL (Homo sapiens, UniProt P00519); experiment: Western-blot half-degradation concentration (DC50) / degradation of BCR-ABL in K562 cells; settings: 24 h
T1 sequence (P00519 with tags, fused parts or gaps): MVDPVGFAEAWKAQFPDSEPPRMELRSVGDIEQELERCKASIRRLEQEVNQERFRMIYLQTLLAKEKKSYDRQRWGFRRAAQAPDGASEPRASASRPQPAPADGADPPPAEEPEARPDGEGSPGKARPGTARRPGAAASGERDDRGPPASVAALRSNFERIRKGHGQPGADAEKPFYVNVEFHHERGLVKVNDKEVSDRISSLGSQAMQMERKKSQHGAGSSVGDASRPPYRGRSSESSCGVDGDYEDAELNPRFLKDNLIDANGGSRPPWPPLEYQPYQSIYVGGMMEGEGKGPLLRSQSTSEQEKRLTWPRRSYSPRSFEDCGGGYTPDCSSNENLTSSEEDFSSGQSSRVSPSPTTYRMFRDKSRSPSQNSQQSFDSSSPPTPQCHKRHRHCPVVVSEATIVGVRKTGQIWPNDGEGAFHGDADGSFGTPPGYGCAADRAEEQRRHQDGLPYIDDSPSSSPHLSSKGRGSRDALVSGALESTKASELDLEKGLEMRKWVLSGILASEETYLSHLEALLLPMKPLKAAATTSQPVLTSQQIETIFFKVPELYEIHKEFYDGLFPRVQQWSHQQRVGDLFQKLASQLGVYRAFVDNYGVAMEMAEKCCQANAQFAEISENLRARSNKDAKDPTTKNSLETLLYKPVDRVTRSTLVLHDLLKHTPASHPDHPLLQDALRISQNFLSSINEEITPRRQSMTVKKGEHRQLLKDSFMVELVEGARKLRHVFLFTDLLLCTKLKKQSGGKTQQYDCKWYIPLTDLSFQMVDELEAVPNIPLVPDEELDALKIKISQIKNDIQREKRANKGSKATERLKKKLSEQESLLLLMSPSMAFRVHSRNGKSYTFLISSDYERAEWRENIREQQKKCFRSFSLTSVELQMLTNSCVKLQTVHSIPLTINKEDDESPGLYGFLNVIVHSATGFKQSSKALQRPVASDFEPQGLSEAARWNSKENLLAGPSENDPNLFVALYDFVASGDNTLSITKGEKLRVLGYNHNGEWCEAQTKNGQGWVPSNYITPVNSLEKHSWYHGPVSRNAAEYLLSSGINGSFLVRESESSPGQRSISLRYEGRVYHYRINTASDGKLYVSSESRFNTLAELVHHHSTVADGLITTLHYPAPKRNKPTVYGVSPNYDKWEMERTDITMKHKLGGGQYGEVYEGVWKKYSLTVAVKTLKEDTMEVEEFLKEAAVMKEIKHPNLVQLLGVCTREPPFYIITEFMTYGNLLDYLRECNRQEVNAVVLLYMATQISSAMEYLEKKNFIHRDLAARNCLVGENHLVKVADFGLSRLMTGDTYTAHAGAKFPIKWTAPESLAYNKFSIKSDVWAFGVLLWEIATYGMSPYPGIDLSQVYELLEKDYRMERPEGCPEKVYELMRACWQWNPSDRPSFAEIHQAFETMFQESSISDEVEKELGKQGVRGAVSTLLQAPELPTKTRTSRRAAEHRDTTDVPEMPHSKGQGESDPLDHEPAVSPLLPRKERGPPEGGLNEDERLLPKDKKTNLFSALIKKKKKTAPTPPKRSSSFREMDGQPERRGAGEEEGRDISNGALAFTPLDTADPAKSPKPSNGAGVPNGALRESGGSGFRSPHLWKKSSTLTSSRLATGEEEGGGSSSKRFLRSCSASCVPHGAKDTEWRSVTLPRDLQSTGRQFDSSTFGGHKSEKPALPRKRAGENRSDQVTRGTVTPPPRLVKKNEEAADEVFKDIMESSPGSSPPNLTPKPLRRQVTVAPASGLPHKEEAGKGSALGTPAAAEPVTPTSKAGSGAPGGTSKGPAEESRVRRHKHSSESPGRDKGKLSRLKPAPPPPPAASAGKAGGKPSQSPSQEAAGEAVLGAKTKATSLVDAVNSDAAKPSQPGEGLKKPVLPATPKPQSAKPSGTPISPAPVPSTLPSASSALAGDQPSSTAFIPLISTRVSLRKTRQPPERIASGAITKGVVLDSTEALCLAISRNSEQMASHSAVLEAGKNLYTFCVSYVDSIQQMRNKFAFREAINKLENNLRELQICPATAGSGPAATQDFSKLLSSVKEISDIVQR

[8] = biological target: T1, BCR-ABL; experiment: Western-blot detection of BCR-ABL protein degradation (FIGS. 1-15); assay type: cell-based
[9] = biological target: T2, c-ABL (Homo sapiens, UniProt P00519); experiment: Western-blot degradation of c-ABL in K562 cells; settings: 24 h
T2 sequence (P00519 whole entry): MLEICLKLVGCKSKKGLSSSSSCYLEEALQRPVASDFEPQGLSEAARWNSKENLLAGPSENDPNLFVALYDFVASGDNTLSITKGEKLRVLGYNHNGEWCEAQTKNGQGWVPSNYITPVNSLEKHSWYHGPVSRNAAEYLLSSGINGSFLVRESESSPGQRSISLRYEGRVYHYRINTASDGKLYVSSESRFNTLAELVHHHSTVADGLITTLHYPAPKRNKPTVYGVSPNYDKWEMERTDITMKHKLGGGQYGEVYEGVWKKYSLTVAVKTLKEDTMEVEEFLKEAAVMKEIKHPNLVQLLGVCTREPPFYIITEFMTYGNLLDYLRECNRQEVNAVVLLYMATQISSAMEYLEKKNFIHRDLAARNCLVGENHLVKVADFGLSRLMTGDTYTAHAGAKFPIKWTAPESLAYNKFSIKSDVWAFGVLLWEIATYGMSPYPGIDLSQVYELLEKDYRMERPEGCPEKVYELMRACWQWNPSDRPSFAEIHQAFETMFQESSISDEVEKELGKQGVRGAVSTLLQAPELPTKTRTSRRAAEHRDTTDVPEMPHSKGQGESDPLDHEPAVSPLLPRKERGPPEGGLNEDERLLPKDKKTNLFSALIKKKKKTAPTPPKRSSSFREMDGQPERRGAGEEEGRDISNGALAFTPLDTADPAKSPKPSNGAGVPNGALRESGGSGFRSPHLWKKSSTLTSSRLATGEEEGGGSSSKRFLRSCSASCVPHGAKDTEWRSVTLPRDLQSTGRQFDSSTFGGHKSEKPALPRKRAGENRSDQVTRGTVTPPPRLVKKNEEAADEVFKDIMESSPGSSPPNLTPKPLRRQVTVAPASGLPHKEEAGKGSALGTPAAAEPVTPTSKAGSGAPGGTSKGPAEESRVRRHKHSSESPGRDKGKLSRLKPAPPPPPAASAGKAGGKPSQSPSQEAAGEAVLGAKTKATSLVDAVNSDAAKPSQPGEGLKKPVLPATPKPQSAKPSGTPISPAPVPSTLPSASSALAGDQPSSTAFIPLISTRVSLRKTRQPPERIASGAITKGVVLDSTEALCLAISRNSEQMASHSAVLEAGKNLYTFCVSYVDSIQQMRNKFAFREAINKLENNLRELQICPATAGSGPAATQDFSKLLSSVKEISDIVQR

[10] = biological target: T2, c-ABL; experiment: Western-blot detection of c-ABL protein degradation (FIGS. 1-15); assay type: cell-based
[11] = biological target: T3, ER protein (Homo sapiens, UniProt P03372); experiment: Western blot half degradation concentration (DC50) of ER protein in T-47D cells; assay type: cell-based; settings: 24 h, read-out: DC50 (nM)/T-47D cell line
T3 construct: detect the expression of ER protein in T-47D cells; endogenous in cells; host or cells: T-47D
T3 sequence (P03372 1-595): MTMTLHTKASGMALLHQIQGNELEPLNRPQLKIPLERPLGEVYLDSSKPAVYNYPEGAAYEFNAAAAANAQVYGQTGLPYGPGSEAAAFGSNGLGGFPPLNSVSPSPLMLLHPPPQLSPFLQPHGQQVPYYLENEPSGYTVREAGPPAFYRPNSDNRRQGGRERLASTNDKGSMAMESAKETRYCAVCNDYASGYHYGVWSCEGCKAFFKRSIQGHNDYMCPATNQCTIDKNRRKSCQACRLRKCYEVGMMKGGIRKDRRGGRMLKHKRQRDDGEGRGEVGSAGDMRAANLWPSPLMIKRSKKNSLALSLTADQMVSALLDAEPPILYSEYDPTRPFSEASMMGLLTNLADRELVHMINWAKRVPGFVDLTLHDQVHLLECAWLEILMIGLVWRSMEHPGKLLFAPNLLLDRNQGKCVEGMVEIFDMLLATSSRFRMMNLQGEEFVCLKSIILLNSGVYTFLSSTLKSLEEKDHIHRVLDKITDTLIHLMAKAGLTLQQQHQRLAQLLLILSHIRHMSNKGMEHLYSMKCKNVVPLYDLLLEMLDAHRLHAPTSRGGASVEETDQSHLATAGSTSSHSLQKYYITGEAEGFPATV
Description: ER positive cells T-47D cells (human breast cancer cells) were purchased from the Cell Bank of the Chinese Academy of Sciences;
as §2, with “1640” for “1640/IMDM/DMEM”
Western Blot Determination of the Half Degradation Concentration (DC50) of the PROTAD Compounds on Target Proteins
The PROTAD compounds of the present disclosure were tested at 5 concentration of 1 nM, 10 nM, 50 nM, 100 nM, 500 nM, respectively, or 5 concentration gradients of 0.04 nM, 0.2 nM, 1 nM, 10 nM, 50 nM, and DMSO and commercial parent inhibitor groups (tamoxifen, toremifene) were set as negative and positive controls at the same time. After the drug treatment for 24 h, cells were washed twice with PBS, and lyzed by adding 50 μL of SDS lysate to each well for lysis on ice for 5 min.

[12] = biological target: T4, BRD2 (Homo sapiens, UniProt P25440); experiment: Western-blot detection of BRD2 protein degradation (FIGS. 16a-c); assay type: cell-based
T4 sequence (P25440 whole entry): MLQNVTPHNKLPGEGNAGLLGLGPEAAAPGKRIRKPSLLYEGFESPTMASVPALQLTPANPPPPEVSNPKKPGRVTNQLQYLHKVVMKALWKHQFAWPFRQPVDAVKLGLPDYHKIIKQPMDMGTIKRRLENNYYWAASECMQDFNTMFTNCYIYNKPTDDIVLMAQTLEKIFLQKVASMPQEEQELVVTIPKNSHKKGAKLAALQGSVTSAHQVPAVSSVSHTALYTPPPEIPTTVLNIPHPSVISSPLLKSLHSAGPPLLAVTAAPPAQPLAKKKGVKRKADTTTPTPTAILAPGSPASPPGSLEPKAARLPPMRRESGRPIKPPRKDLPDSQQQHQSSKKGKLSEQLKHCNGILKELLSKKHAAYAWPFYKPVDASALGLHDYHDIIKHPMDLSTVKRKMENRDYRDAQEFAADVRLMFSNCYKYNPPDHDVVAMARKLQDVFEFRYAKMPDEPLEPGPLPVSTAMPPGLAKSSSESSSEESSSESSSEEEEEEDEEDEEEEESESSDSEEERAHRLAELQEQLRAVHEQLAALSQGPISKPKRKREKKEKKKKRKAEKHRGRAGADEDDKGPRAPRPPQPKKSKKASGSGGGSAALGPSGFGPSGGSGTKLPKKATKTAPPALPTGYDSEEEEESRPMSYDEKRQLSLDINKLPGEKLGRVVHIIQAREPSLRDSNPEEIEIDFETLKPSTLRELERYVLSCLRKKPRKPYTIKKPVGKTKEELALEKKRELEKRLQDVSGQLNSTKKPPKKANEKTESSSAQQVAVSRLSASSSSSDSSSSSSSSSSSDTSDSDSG

[13] = biological target: T5, BRD4 (Homo sapiens, UniProt O60885); experiment: Western-blot degradation of BRD4 in MV-4-11 cells; assay type: cell-based; settings: 24 hours
Source text: (§3) Western-Blot Determination of the Half-Degradation Concentration (DC50) of the PROTAD Compounds on the Target Proteins
(§4) The supernatant was aspirated as total cell protein extracted.

[14] = biological target: T5, BRD4; experiment: Western-blot detection of BRD4 protein degradation (FIGS. 16a-c); assay type: cell-based
[15] = biological target: T4, BRD2; experiment: Western-blot half-degradation concentration (DC50) / degradation of BRD2 in MV-4-11 cells; assay type: cell-based; settings: 24 hours
Source text: as §3, §4

[16] = Homo sapiens, MDA-MB-453, MDA-MB-453 cells

Compound: Cc1nc(Nc2ncc(C(=O)Nc3c(C)cccc3Cl)s2)cc(N2CCN(C(=O)CNc3cccc4c3C(=O)N(C3CCC(=O)NC3=O)C4=O)CC2)n1 (stereo not shown) [SIAIS151072, N-(2-chloro-6-methylphenyl)-2-((6-(4-((2-(2,6-dioxopiperidin-3-yl)-1,3-dioxoisoindolin-4-yl)aminoacetyl)piperazin-1-yl)-2-methylpyrimidin-4-yl)amino)thiazole-5-carboxamide]
degradation of BCR-ABL protein (Western-blot) [7]: significantly weaker ability to degrade BCR-ABL and c-ABL proteins
ability to degrade BCR-ABL protein (Western-blot, in words) [8]: significantly weaker ability to degrade
degradation of c-ABL protein (Western-blot) [9]: significantly weaker ability to degrade BCR-ABL and c-ABL proteins
ability to degrade c-ABL protein (Western-blot, in words) [10]: significantly weaker ability to degrade

Compound: Cc1sc2c(c1C)C(c1ccc(Cl)cc1)=N[C@@H](CC(=O)NCCCCSc1cccc3c1CN(C1CCC(=O)NC1=O)C3=O)c1nnc(C)n1-2 (stereo partly drawn) [SIAIS171141, 2-((S)-4-(4-chlorophenyl)-2,3,9-trimethyl-6H-thieno[3,2-f][1,2,4]triazolo[4,3-a][1,4]diazepin-6-yl)-N-(4-((2-(2,6-dioxopiperidin-3-yl)-1-oxoisoindolin-4-yl)thio)butyl)acetamide]
IC50 [1]: 19.9 ± 9.2 nM
IC50 [2]: 0.25 ± 0.2 nM
IC50 [3]: 10 ± 2 nM
IC50 [4]: 3.91 nM
IC50 [5]: 0.24 nM
IC50 [6, 16]: 112 nM
IC50 ([6]; MDA-MB-453 cells): 98 nM

Compound: CCC(=C(c1ccc(O)cc1)c1ccc(OCCNC(=O)CCCCCCSc2cccc3c2C(=O)N(C2CCC(=O)NC2=O)C3=O)cc1)c1ccc(O)cc1 (stereo not shown) [SIAIS208170, N-(2-(4-(1,2-bis(4-hydroxyphenyl)but-1-en-1-yl)phenoxy)ethyl)-7-((2-(2,6-dioxopiperidin-3-yl)-1,3-dioxoisoindolin-4-yl)thio)heptanamide]
DC50 [11]: 10 nM

The next lines start with results.

IC50 [1]: 17.7 ± 7.6 nM
IC50 [2]: 0.08 ± 0.03 nM
IC50 [3]: 6.1 ± 0.4 nM
IC50 [4]: 2.42 nM
IC50 [5]: 0.31 nM
IC50 [6, 16]: 37.4 nM
IC50 ([6]; MDA-MB-453 cells): 37.1 nM
Compound: Cc1sc2c(c1C)C(c1ccc(Cl)cc1)=N[C@@H](CC(=O)NCCCCCSc1cccc3c1CN(C1CCC(=O)NC1=O)C3=O)c1nnc(C)n1-2 (stereo partly drawn) [SIAIS171142, 2-((S)-4-(4-chlorophenyl)-2,3,9-trimethyl-6H-thieno[3,2-f][1,2,4]triazolo[4,3-a][1,4]diazepin-6-yl)-N-(5-((2-(2,6-dioxopiperidin-3-yl)-1-oxoisoindolin-4-yl)thio)pentyl)acetamide]

DC50 [11]: 10 nM
Compound: CCC(=C(c1ccc(O)cc1)c1ccc(OCCNC(=O)CCCCCCSc2cccc3c2CN(C2CCC(=O)NC2=O)C3=O)cc1)c1ccc(O)cc1 (stereo not shown) [SIAIS208171, N-(2-(4-(1,2-bis(4-hydroxyphenyl)but-1-en-1-yl)phenoxy)ethyl)-7-((2-(2,6-dioxopiperidin-3-yl)-1-oxoisoindolin-4-yl)thio)heptanamide]

ability to degrade BRD2 protein (Western-blot, in words) [12]: significantly weaker ability to degrade
ability to degrade BRD4 protein (Western-blot, in words) [14]: significantly weaker ability to degrade
Compound: Cc1sc2c(c1C)C(c1ccc(Cl)cc1)=N[C@@H](CC(=O)NCCCCCNc1cccc3c1CN(C1CCC(=O)NC1=O)C3=O)c1nnc(C)n1-2 (stereo partly drawn) [SIAIS213110, 2-((S)-4-(4-chlorophenyl)-2,3,9-trimethyl-6H-thieno[3,2-f][1,2,4]triazolo[4,3-a][1,4]diazepin-6-yl)-N-(5-((2-(2,6-dioxopiperidin-3-yl)-1-oxoisoindolin-4-yl)amino)pentyl)acetamide]
degradation of BRD4 protein (Western-blot) [13]: significantly weaker ability to degrade BRD2 and BRD4 proteins
degradation of BRD2 protein (Western-blot) [15]: significantly weaker ability to degrade BRD2 and BRD4 proteins

ability to degrade BRD2 protein (Western-blot, in words) [12]: significantly weaker ability to degrade
ability to degrade BRD4 protein (Western-blot, in words) [14]: significantly weaker ability to degrade
Compound: Cc1sc2c(c1C)C(c1ccc(Cl)cc1)=N[C@@H](CC(=O)NCCCCCOc1cccc3c1CN(C1CCC(=O)NC1=O)C3=O)c1nnc(C)n1-2 (stereo partly drawn) [SIAIS271066, 2-((S)-4-(4-chlorophenyl)-2,3,9-trimethyl-6H-thieno[3,2-f][1,2,4]triazolo[4,3-a][1,4]diazepin-6-yl)-N-(5-((2-(2,6-dioxopiperidin-3-yl)-1-oxoisoindolin-4-yl)oxy)pentyl)acetamide]
degradation of BRD4 protein (Western-blot) [13]: significantly weaker ability to degrade BRD2 and BRD4 proteins
degradation of BRD2 protein (Western-blot) [15]: significantly weaker ability to degrade BRD2 and BRD4 proteins
